Experiment: Inhibition of Influenza A virus H1N1 Neuraminidase

CCC(CC)O[C@@H]1C=C(C(=O)O)C[C@H](NCc2ccc(Sc3ccccc3)cc2)[C@H]1NC(C)=O showed an IC50 of 5.6 nM.
